# Key:
# hippocampal neurogenesis = settings: literature; antidepressants given chronically; cited from earlier work
# seizure threshold = settings: rat MEST test, dose range 0.1-30 mg/kg; cited from earlier work
# [1] = tested on: NCAM PSA-immunoreactive neurons, dentate granule cell layer/hilar border; assay: NCAM PSA expression in hippocampal dentate gyrus after chronic administration; type: in vivo, rat; settings: for PSA immunopositive cell frequency: hippocampal dentate; for effect on frequency of polysialylated neurons in the subventricular zone of the rat hippocampal dentate gyrus: chronic administration, versus vehicle-treated control
# Method: (§1) Experimentally naïve postnatal day 80 (at the time of NCAM-PSA assessment) male Wistar rats were employed in all studies. All animals were housed singly and maintained at 22±2° C. on a standard 12 h-light/dark cycle with food and water available ad libitum. Animals were introduced to the experimental holding rooms at least 3 days prior to the commencement of any study.
# (§2) Freshly dissected whole rat brain was carefully coated in optimum cutting temperature (OCT) compound and lowered into a Cryoprep freezing apparatus containing dry-ice-cooled n-hexane. The function of the OCT compound and n-hexane was to provide an even freezing of the tissue, thus avoiding freezing artefacts. Horizontal sections for all studies were cut semi-automatically or automatically on a Microm Series 500 cryostat. Fresh, frozen brain sections (12 μm) were cut at −15° C., while cryoprotected. All sections were prepared on the day of the experiment and were not pre-cut and stored frozen.
# (§3) Horizontal cryosections were cut from the frozen tissue at various levels with reference to Bregma (see above), these were thaw-mounted onto glass slides, which were coated with poly-1-lysine diluted 1:1 in dH2O, and immersion fixed for 30 minutes with 70% ethanol. The sections were then washed twice for 10 minutes each in 0.1M phosphate buffered saline (PBS) and incubated for 20 hours in a humidified chamber at room temperature with the primary antibody diluted 1:500 in PBS containing 1% bovin serum albumin (w/v) and 1% normal goat serum (v/v) to reduce non-specific staining. The humidified chamber prevented the sections from evaporating. The primary antibody was a monoclonal raised against PSA, which was provided by Professor G, Rougon (CNRS UMR 6545, 13288 Marseille, France). On completion of the primary antibody incubation, the sections were washed twice for ten minutes each in PBS and incubated at room temperature for 3 hours in the humidified chamber with the secondary antibody, at a dilution factor of 1:100, again in PBS containing 1% BSA and 1% NGS. The secondary antibody was a goat anti-mouse IgM conjugated to fluorescein (FITC). Following the second incubation, the sections ware again washed twice for ten minutes each in PBS, mounted in the fluorescence enhancing medium Citifluor® and observed for fluorescence with a Leitz DM RB fluorescent microscope.
# (§4) Quantitative image analysis was performed using the Leica Quantimet 500®, a P.C.-based software package, which was connected to the fluorescence microscope with a high sensitivity CCD video camera. Each microscope lens was calibrated for length and area measurements using a 1 mm graticule. The total number of NCAM PSA-immunoreactive neurons on the right dentate granule cell layer/hilar border were counted in 7 alternate 12 μm sections commencing −5.6 mm from Bregma (Paxinos and Watson, 1986), to preclude double counting of the 5-10 μm perikarya. Cell identification was aided by the use of the nuclear counter-stain propidium iodide (40 ng/ml PBS; 60 sec). The number of cells was then divided by the total area of the dentate granule cell layer and multiplied by the average granule cell layer area for a p80 rat, which is 0.15±0.01 mm^2 at this level. This was done for each section and a mean±SEM was calculated for each brain with the results expressed as PSA-positive cells per unit area. […] Cell identification was again aided by the use of the nuclear counter-stain propidium iodide (40 ng/ml PBS; 60 sec) with the use of alternate sections eliminating the possibility of double counting. Cell counts were divided by the length of the cortex and multiplied by the average length of the cortex, which was taken to be 10 mm. This was completed for each section and a mean±SEM was calculated for each brain with the results expressed as PSA-positive cells per unit length.
# NCAM PSA-positive cell numbers were obtained from each animal group.
# rat 5-HT6 receptors = rat 5-HT6 receptors (Rattus norvegicus, UniProt P31388); settings: cited from earlier work
# rat 5-HT6 receptors, sequence (P31388 whole entry): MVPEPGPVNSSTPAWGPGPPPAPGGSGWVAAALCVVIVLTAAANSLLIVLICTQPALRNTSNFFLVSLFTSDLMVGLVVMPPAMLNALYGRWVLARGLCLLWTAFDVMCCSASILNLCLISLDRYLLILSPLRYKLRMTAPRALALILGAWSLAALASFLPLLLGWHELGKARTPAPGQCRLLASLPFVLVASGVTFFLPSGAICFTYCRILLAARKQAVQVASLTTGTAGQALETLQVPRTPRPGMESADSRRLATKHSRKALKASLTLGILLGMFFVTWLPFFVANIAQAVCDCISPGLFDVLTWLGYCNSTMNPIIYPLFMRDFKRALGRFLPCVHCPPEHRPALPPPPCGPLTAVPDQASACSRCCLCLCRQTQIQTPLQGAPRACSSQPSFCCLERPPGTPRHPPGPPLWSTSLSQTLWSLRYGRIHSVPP
# [2] = tested on: polysialylated neurons in layer II of the entorhinal and perirhinal cortex; assay: NCAM PSA expression in medial temporal lobe after chronic administration; type: in vivo, rat; settings: 20 mg/kg; for PSA immunopositive cell frequency: medial temporal lobe, 40 days by gavage
# Method: Experimentally naïve postnatal day 80 (at the time of NCAM-PSA assessment) male Wistar rats were employed in all studies. All animals were housed singly and maintained at 22±2° C. on a standard 12 h-light/dark cycle with food and water available ad libitum. Animals were introduced to the experimental holding rooms at least 3 days prior to the commencement of any study. The frequency of polysialylated neurons in the rat medial temporal lobe was also examined following chronic exposure to 5-HT6 antagonist. […] Horizontal cryosections were cut from the frozen tissue at various levels with reference to Bregma (see above), these were thaw-mounted onto glass slides, which were coated with poly-[…] diluted 1:1 in dH2O, and immersion fixed for 30 minutes with 70% ethanol. The sections were then washed twice for 10 minutes each in 0.1M phosphate buffered saline (PBS) and incubated for 20 hours in a humidified chamber at room temperature with the primary antibody diluted 1:500 in PBS containing 1% bovin serum albumin (w/v) and 1% normal goat serum (v/v) to reduce non-specific staining. The humidified chamber prevented the sections from evaporating. The primary antibody was a monoclonal raised against PSA, which was provided by Professor G, Rougon (CNRS UMR 6545, 13288 Marseille, France). On completion of the primary antibody incubation, the sections were washed twice for ten minutes each in PBS and incubated at room temperature for 3 hours in the humidified chamber with the secondary antibody, at a dilution factor of 1:100, again in PBS containing 1% BSA and 1% NGS. The secondary antibody was a goat anti-mouse IgM conjugated to fluorescein (FITC). Following the second incubation, the sections ware again washed twice for ten minutes each in PBS, mounted in the fluorescence enhancing medium Citifluor® and observed for fluorescence with a Leitz DM RB fluorescent microscope. Quantitative image analysis was performed using the Leica Quantimet 500®, a P.C.-based software package, which was connected to the fluorescence microscope with a high sensitivity CCD video camera. Each microscope lens was calibrated for length and area measurements using a 1 mm graticule. […] Cell identification was aided by the use of the nuclear counter-stain propidium iodide (40 ng/ml PBS; 60 sec). […] This was done for each section and a mean±SEM was calculated for each brain with the results expressed as PSA-positive cells per unit area. […] Cell identification was again aided by the use of the nuclear counter-stain propidium iodide (40 ng/ml PBS; 60 sec) with the use of alternate sections eliminating the possibility of double counting. Cell counts were divided by the length of the cortex and multiplied by the average length of the cortex, which was taken to be 10 mm. This was completed for each section and a mean±SEM was calculated for each brain with the results expressed as PSA-positive cells per unit length. […] NCAM PSA-positive cell numbers were obtained from each animal group. Results were expressed as mean±SEM with at least 3-6 values per group and analysed by ANOVA or unpaired non-parametric, Student's t-test, as indicated. […] Drug administration ceased 24 h prior to animal sacrifice. Animal weight gain and general physical condition was monitored daily. Methylcellulose (1% w/v) treated controls and use of the antipyschotic clozapine were employed for comparison.
# [3] = tested on: retention of a spacial memory task; settings: rat, 10 mg/kg p.o.; cited from earlier work
# [4] = in vivo; cited from earlier work
# [5] = tested on: BrdU-immunopositive cells in the hippocampal dentate granule cell layer; assay: BrdU expression in hippocampal dentate granule cell layer (neurogenesis); type: in vivo, rat; settings: for BrdU-immunopositive cell number/granule cell layer: 20 mg/kg, 40 days by gavage, BrdU 100 mg/kg i.p. last eight days; for effect on expression of BrdU-immunopositive cells / neurogenic rate: chronic 20 mg/kg, versus vehicle-treated controls
# Method: as §1
# [6] = tested on: NCAM PSA-immunoreactive neurons, dentate granule cell layer/hilar border; assay: NCAM PSA expression in hippocampal dentate gyrus with water maze training; type: in vivo, rat; settings: for effect on frequency of polysialylated neurons at 12 h following water maze training: versus untrained drug-treated and trained drug-naive animals
# Method: as §1, §2, §3, §4
# In this protocol animals were introduced to the training environment 5 days prior to training, and individually housed according to standard conditions. […]
# [7] = Example 3, 20 mg/kg, 40 days by gavage
structure (smiles),measurement,setting,value
N[C@@H]1C[C@H]1c1ccccc1 (racemic) [tranylcypromine],effect on hippocampal neurogenesis,hippocampal neurogenesis,stimulate hippocampal neurogenesis
CCOC(=O)[C@H](N)/C=C(\C)CP(=O)(O)O [CGP43487],effect on hippocampal neurogenesis,hippocampal neurogenesis,reduce the rate of hippocampal neurogenesis
"COc1ccc(NS(=O)(=O)c2sc3ccc(Cl)cc3c2C)cc1N1CCNCC1.Cl [SB271046, 5-Chloro-3-methylbenzo[b]thiophene-2-sulfonic acid (4-methoxy-3-piperazin-1-ylphenyl)amide hydrochloride]",seizure threshold,seizure threshold,increases seizure threshold
same,PSA immunopositive cell frequency,"[1]; Example 1, 3 mg/kg, 40 days by gavage",70.3 ± 3.9 PSA-positive cells per unit area
same,PSA immunopositive cell frequency,"[1]; Example 1, 10 mg/kg, 40 days by gavage",82.4 ± 1.7 PSA-positive cells per unit area
same,PSA immunopositive cell frequency,"[1]; Example 1, 20 mg/kg, 40 days by gavage",85.8 ± 8.4 PSA-positive cells per unit area
same,PSA immunopositive cell frequency,[1]; [7],78.3 ± 3.4 PSA-positive cells per unit area
same,frequency of polysialylated neurons in repeat group compared with Example 1,"[1]; Example 3 repeat, 20 mg/kg chronic",no difference
same,effect on frequency of polysialylated neurons in the subventricular zone of the rat hippocampal dentate gyrus,[1],significantly increase
same,pKi,rat 5-HT6 receptors,9.0
same,effect on frequency of polysialylated neurons in the rat medial temporal lobe,[2]; chronic exposure,increased
same,PSA immunopositive cell frequency,[2]; Bregma level -7.1 mm,61.7 ± 1.7 PSA-positive cells per unit length
same,PSA immunopositive cell frequency,[2]; Bregma level -7.6 mm,69.9 ± 0.9 PSA-positive cells per unit length
same,PSA immunopositive cell frequency,[2]; Bregma level -8.1 mm,125.4 ± 3.5 PSA-positive cells per unit length
same,PSA immunopositive cell frequency,[2]; Bregma level -8.6 mm,178.3 ± 12.2 PSA-positive cells per unit length
same,retention of a spacial memory task,[3],significant improvements
same,oral bioavailability,[4],orally bioavailable
same,BrdU-immunopositive cell number/granule cell layer,[5],2332 ± 136.5
same,effect on expression of BrdU-immunopositive cells / neurogenic rate,[5],without altering neurogenic rate
same,PSA immunopositive cell frequency,"[6]; Example 2, acute 20 mg/kg by gavage 30 min before water maze training, 12 h post-training",96.0 ± 5.5 PSA-positive cells per unit area
same,PSA immunopositive cell frequency,"[6]; Example 2, acute 20 mg/kg by gavage, untrained",64.2 ± 4.3 PSA-positive cells per unit area
same,PSA immunopositive cell frequency,"[6]; Example 2, chronic 20 mg/kg, 40 days by gavage, 12 h post water maze training",109.8 ± 1.8 PSA-positive cells per unit area
same,PSA immunopositive cell frequency,"[6]; Example 2, chronic 20 mg/kg, 40 days by gavage, untrained",85.8 ± 1.3 PSA-positive cells per unit area
same,effect on frequency of polysialylated neurons at 12 h following water maze training,[6]; acute 20 mg/kg,significantly increase
"COc1ccc(S(=O)(=O)Nc2cc(Cl)cc(Cl)c2OC)cc1N1CCNCC1.Cl [SB399885, N-(3,5-dichloro-2-methoxy-phenyl)-4-methoxy-3-piperazin-1-yl-benzenesulfonamide hydrochloride]",PSA immunopositive cell frequency,"[1]; Example 3, 3 mg/kg, 40 days by gavage",81.4 ± 5.3 PSA-positive cells per unit area
same,PSA immunopositive cell frequency,"[1]; Example 3, 10 mg/kg, 40 days by gavage",87.4 ± 5.4 PSA-positive cells per unit area
same,PSA immunopositive cell frequency,[1]; [7],104.2 ± 4.4 PSA-positive cells per unit area
same,effect on frequency of polysialylated neurons in the subventricular zone of the rat hippocampal dentate gyrus,[1],significantly increase
same,dose dependent increase in basal frequency of hippocampal polysialylated neurons compared with SB271046 of Example 1,"[1]; chronic treatment, analysis of variance F[1,21]=5.882, P=0.0244",significantly greater
same,BrdU-immunopositive cell number/granule cell layer,[5],2296.7 ± 49.1
same,effect on expression of BrdU-immunopositive cells / neurogenic rate,[5],without altering neurogenic rate
same,PSA immunopositive cell frequency,"[6]; Example 4, chronic 20 mg/kg, 40 days by gavage, 12 h post water maze training",125.9 ± 4.7 PSA-positive cells per unit area
same,PSA immunopositive cell frequency,"[6]; Example 4, chronic 20 mg/kg, 40 days by gavage, untrained",104.2 ± 4.4 PSA-positive cells per unit area
same,increase in frequency of hippocampal polysialylated neurons 12 h following water maze training compared with SB271046 of Example 2,"[6]; chronic 20 mg/kg, Student's t-test P=0.0337",significantly greater
same,effect on frequency of polysialylated neurons at 12 h following water maze training,[6]; chronic 20 mg/kg,significantly increase
NCCc1c[nH]c2ccc(O)cc12 [Serotonin],effect on hippocampal neurogenesis,hippocampal neurogenesis,stimulate hippocampal neurogenesis
"CN1CCN(C2=Nc3cc(Cl)ccc3Nc3ccccc32)CC1 [clozapine, reference compound]",PSA immunopositive cell frequency,"[1]; Example 1, 5 mg/kg, chronic comparison group",69.8 ± 1.6 PSA-positive cells per unit area
CNCCC(Oc1ccc(C(F)(F)F)cc1)c1ccccc1 (stereo not shown) [fluoxetine],effect on hippocampal neurogenesis,hippocampal neurogenesis,stimulate hippocampal neurogenesis
CN1CC[C@]23c4c5ccc(O)c4O[C@H]2[C@@H](O)C=C[C@H]3[C@H]1C5 [morphine],effect on hippocampal neurogenesis,hippocampal neurogenesis,reduce the rate of hippocampal neurogenesis
CCOc1ccccc1OC(c1ccccc1)C1CNCCO1 (stereo not shown) [reboxetine],effect on hippocampal neurogenesis,hippocampal neurogenesis,stimulate hippocampal neurogenesis

# — patent US20070270432A1, “Novel Method” (priority 2002, published 2007)
